{"source": "patent US5998435A", "about": "“Use of a tachykinin antagonist for the manufacture of a medicament for the treatment of emesis” (priority 1998, dated 1999)", "key": {"[1]": {"test_system": "cisplatin-induced emesis", "conditions": "cisplatin 5 mg/kg i.p."}, "[2]": {"molecular_target": "T1, NK1 receptor (Meriones unguiculatus, UniProt Q5DUB1)", "T1 construct": "centrally NK1 receptor mediated foot-tapping response was examined in the gerbil; from tissue; host or cells: whole animal (gerbil), central NK1 receptors, i.c.v. agonist", "T1 sequence (Q5DUB1 whole entry)": "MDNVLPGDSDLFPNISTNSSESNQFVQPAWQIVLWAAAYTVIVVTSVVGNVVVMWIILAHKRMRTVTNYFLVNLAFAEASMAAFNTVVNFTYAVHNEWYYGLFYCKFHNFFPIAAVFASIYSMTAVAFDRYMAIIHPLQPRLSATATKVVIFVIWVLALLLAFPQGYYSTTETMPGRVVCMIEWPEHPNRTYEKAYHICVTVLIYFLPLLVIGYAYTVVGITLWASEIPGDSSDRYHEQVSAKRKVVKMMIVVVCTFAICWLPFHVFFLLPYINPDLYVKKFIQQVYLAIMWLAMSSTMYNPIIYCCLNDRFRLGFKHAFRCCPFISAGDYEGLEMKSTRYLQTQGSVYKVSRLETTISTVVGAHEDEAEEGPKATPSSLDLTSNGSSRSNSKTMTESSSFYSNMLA", "conditions": "administered systemically 30 minutes before [Sar9,Met(O2)11]-substance P; cited from earlier work"}, "[3]": {"test_system": "cisplatin-induced emesis", "test": "Cisplatin-induced acute emesis in the ferret", "format": "in vivo", "conditions": "ferret", "source_text": "Adult male albino Fitch ferrets (>1 kg weight) were individually housed with free access to food (SDS Diet \"C\", Special Diet Services Ltd, Essex, U.K.). Thirty minutes prior to the commencement of the studies, the ferrets were presented with 100 g of commercially available tinned cat food."}, "[4]": {"molecular_target": "T1, NK1 receptor", "test": "[Sar9,Met(O2)11]substance P-induced hind foot tapping in the gerbil", "format": "in vivo", "description": "FIG. 3. […] The duration of foot tapping (sec) was recorded for 5 minutes immediately following recovery of the animals righting reflex.\nGerbils were anaesthetized with isoflurane, and an incision was made to expose the skull. […] Animals were placed individually into observation boxes, and duration of hind foot tapping was recorded for 5 minutes immediately following recovery of the animals' righting reflex."}, "[5]": {"conditions": "The Compound 10 mg/kg or ondansetron 1 mg/kg i.p. three times a day"}}, "data": [{"smiles": "Cc1nccn1CC1CCc2c(c3ccccc3n2C)C1=O", "note": "(stereo not shown) [ondansetron]", "values": [{"measurement": "delayed emesis during the 3 days (3-72 hours)", "setting": "[1]; [5]", "value": "much lower activity"}, {"measurement": "retching and vomiting during the first 3 hours of the emetic response (acute)", "setting": "[1]; [5]", "value": "completely blocked"}, {"measurement": "effect during the start of the delayed response (Day 1, 3-24 hours)", "setting": "[1]; ondansetron 1 mg/kg i.p. tid", "value": "failed to show any effect"}]}, {"smiles": "COc1ccccc1CN[C@H]1CCCN[C@H]1c1ccccc1", "note": "[CP-99,994]", "values": [{"measurement": "inhibition of the foot-tapping response", "setting": "[2]", "value": "dose-dependentlyinhibit"}]}, {"smiles": "CN(C)CC(=O)OCC(NC(=O)C(C)(Cc1c[nH]c2ccccc12)NC(=O)OCc1cc2ccccc2o1)c1ccccc1", "note": "(stereo not shown) [Compound 2, Dimethylamino-acetic acid 2-[2-(benzofuran-2-ylmethoxycarbonylamino)-3-(1H-indol-3-yl)-2-methyl-propionylamino]-2-phenyl-ethyl ester]", "values": [{"measurement": "block of cisplatin-induced emesis", "setting": "[3]", "value": "inability"}, {"measurement": "block of the foot-tapping response, s.c.", "setting": "[4]; 1-100 mg/kg s.c.", "value": "failed to block"}, {"measurement": "MED, antagonism of foot-tapping response, i.c.v.", "setting": "[4]; i.c.v. administration", "value": 10, "unit": "μg/animal"}]}]}
